In US12642769B2, “Delivery carrier into cell” (Kabusikikaisya ITO, priority 2019, dated 2026):

What was measured:
Format in all cases: cell-based
[1] = tested on: LabCyte EPI-MODEL normal skin epidermis model; experiment: in vitro skin irritation test OECD TG-439, temperature-responsive carriers; conditions: the lower the score, the higher the toxicity; Water (negative control) 100 points
Method: In Vitro Skin Irritation Test of Cultured Cell According to OECD Guidelines. OECD
Guidelines for the Testing of Chemicals, 439. (2015)
LabCyte EPI-MODEL was used as a normal skin epidermis model, and a skin irritation test was performed and scored. As a result (the lower the score, the higher the toxicity), the score is 3 points for 5% SLS (positive control), 100 points for Water (negative control), 125 points for A-1 of the present invention, and B-1 was 101, C-1 was 89, and D-1 was 83, and the viable cell rate was 50% or higher in all the formulations. All skin irritation was denied.

[2] = tested on: LabCyte EPI-MODEL normal skin epidermis model; experiment: in vitro skin irritation test OECD 439, photoresponsive carriers; conditions: the higher the score, the higher the safety; Water (negative control) 100 points
Method: In vitro skin irritation tests were performed on cultured cell according to OECD guidelines. The guidelines used were OECD GUIDELINES FOR THE TESTING OF CHEMICALS, 439. (2015). LabCyte EPI-MODEL was used as a normal skin epidermis model, and a skin irritation test was performed and scored. As a result (the higher the score, the higher the safety), the score is 5% SLS (positive control) 3 points, Water (negative control) 100 points, A-1 of the present invention is 111 points, B-1 was 98 points, C-1 was 87 points, and D-1 was 79 points. The viable cell rate of all the preparations was 50% or more, and skin irritation was denied.

[3] = tested on: LabCyte EPI-MODEL normal dermal epidermis model; experiment: in vitro skin irritation test OECD 439, pH-responsive carriers; conditions: the lower the score, the higher the toxicity; Water (negative control) 100 points
Method: In vitro skin irritation tests were conducted using cultured cell according to OECD guidelines. We used OECD GUIDELINES FOR THE TESTING OF CHEMICALS, 439. (2015) for guidelines. As a result of the skin irritation test using LabCyte EPI-MODEL as a normal dermal epidermis model (the lower the score, the higher the toxicity and the lower the safety), the scores were 3 points for 5% SLS (positive control) and 100 points for Water (negative control), 134 points for A-2, 109 points for B-2,95 points for C-2, and 91 points for D-2, and the percentage of viable cell was more than 50% for all the preparations and the skin irritation was denied.

Measured: skin irritation test score

CCCCCCCCCCCCOS(=O)(=O)[O-].[Na+] [SLS]
3 points: all assays above
